In patent US20140038989A1, “TETRAHYDROPYRAZOLO [1,5-A] PYRIMIDINE AS ANTI-TUBERCULOSIS COMPOUNDS” (Glaxo Group Limited, priority 2011, published 2014) one finds MIC data, which are given here for 29 compounds.

Structures are written as SMILES. In brackets after ≈: the same amount, converted by molar mass.

The test system of this assay is Mycobacterium tuberculosis H37Rv. In words: Mycobacterium tuberculosis H37Rv Inhibition Assay (Whole Cell Assay). As to conditions: ATCC 25618 / H37Rv, H37Rv strain (ATCC25618), Middlebrook 7H9, six days at 37° C., resazurin fluorescence after 48 hours. In kind it is cell-based. Background: Alamar Blue is a resazurin reagent that responds to reducing activity.
`CCc1ccc([C@H]2C[C@@H](C(F)(F)F)n3ncc(C(=O)NCc4ccc(F)cc4)c3N2)cc1` (relative stereo) [Example 58, Cis-5-(4-ethylphenyl)-N-(4-fluorobenzyl)-7-(trifluoromethyl)-4,5,6,7-tetrahydropyrazolo[1,5-a]pyrimidine-3-carboxamide] had an MIC of at most 1 µM. With `CCc1ccc([C@H]2C[C@@H](C(F)(F)F)n3ncc(C(=O)NCc4ccc(C)n4C)c3N2)cc1` (relative stereo) [Example 72, Cis-N-((1,5-dimethyl-1H-pyrrol-2-yl)methyl)-5-(4-ethylphenyl)-7-(trifluoromethyl)-4,5,6,7-tetrahydropyrazolo[1,5-a]pyrimidine-3-carboxamide] the figure was at most 1 µM; with `CCc1ccc([C@H]2C[C@@H](C)n3ncc(C(=O)NCc4ccc(OC)cc4)c3N2)cc1` (relative stereo) [Example 23, Cis-5-(4-ethylphenyl)-7-methyl-N-{[4-(methyloxy)phenyl]methyl}-4,5,6,7-tetrahydropyrazolo[1,5-a]pyrimidine-3-carboxamide], at most 1 µM. With `COc1ccc(C2CC(C(F)(F)F)n3ncc(C(=O)NCc4ccccc4)c3N2)cc1` (centres unmarked) [Example 53, N-benzyl-5-(4-methoxyphenyl)-7-(trifluoromethyl)-4,5,6,7-tetrahydropyrazolo[1,5-a]pyrimidine-3-carboxamide] the figure was above 2 µM; with `CCc1ccc([C@H]2C[C@@H](C(F)(F)F)n3ncc(C(=O)NCc4ccc(F)cc4F)c3N2)cc1` (relative stereo) [Example 59, Cis-N-[(2,4-difluorophenyl)methyl]-5-(4-ethylphenyl)-7-(trifluoromethyl)-4,5,6,7-tetrahydropyrazolo[1,5-a]pyrimidine-3-carboxamide], at most 1 µM; with `CCc1ccc([C@H]2C[C@@H](C(C)(F)F)n3ncc(C(=O)NCc4ccc(C)cc4)c3N2)cc1` (relative stereo) [Example 68, Cis-7-(1,1-difluoroethyl)-5-(4-ethylphenyl)-N-(4-methylbenzyl)-4,5,6,7-tetrahydropyrazolo[1,5-a]pyrimidine-3-carboxamide], at most 1 µM.

Turning to `CCc1ccc([C@H]2C[C@@H](C(F)(F)F)n3ncc(C(=O)NCc4ccc(N(C)C)cc4)c3N2)cc1` (relative stereo) [Example 11, Cis-N-(4-(dimethylamino)benzyl)-5-(4-ethylphenyl)-7-(trifluoromethyl)-4,5,6,7-tetrahydropyrazolo[1,5-a]pyrimidine-3-carboxamide], the MIC is 1 to 2 µM (≈ 0.472 to 0.943 µg/mL). With `CCc1ccc([C@H]2C[C@@H](C(F)(F)F)n3ncc(C(=O)NCc4ncc(C)cc4F)c3N2)cc1` [Example 106, (5R,7S)-5-(4-ethylphenyl)-N-((3-fluoro-5-methylpyridin-2-yl)methyl)-7-(trifluoromethyl)-4,5,6,7-tetrahydropyrazolo[1,5-a]pyrimidine-3-carboxamide] the figure was 1 to 2 µM (≈ 0.461 to 0.923 µg/mL). With `CCc1ccc([C@H]2C[C@@H](C(F)(F)F)n3ncc(C(=O)NCc4ccc(C)cn4)c3N2)cc1` (relative stereo) [Example 20, Cis-5-(4-ethylphenyl)-N-((5-methylpyridin-2-yl)methyl)-7-(trifluoromethyl)-4,5,6,7-tetrahydropyrazolo[1,5-a]pyrimidine-3-carboxamide] the figure was 1 to 2 µM (≈ 0.443 to 0.887 µg/mL). With `Cc1ccc(C2CC(C(F)(F)F)n3ncc(C(=O)NCc4ccccc4Cl)c3N2)cc1` (centres unmarked) [Example 52, N-(2-chlorobenzyl)-5-(p-tolyl)-7-(trifluoromethyl)-4,5,6,7-tetrahydropyrazolo[1,5-a]pyrimidine-3-carboxamide] the figure was above 2 µM; with `CCc1ccc([C@H]2C[C@@H](C(F)F)n3ncc(C(=O)NCc4ccc(OC)cc4)c3N2)cc1` (relative stereo) [Example 32, Cis-7-(difluoromethyl)-5-(4-ethylphenyl)-N-(4-methoxybenzyl)-4,5,6,7-tetrahydropyrazolo[1,5-a]pyrimidine-3-carboxamide], at most 1 µM. For `CCc1ccc([C@@H]2C[C@H](C(F)(F)F)n3ncc(C(=O)NCc4ccc(OC)cc4)c3N2)cc1` (single isomer, unassigned) [Example 1b], the MIC was above 2 µM. With `CCc1ccc([C@H]2C[C@@H](C(C)C)n3ncc(C(=O)NCc4ccc(C)cc4)c3N2)cc1` (relative stereo) [Example 66, Cis-5-(4-ethylphenyl)-7-isopropyl-N-(4-methylbenzyl)-4,5,6,7-tetrahydropyrazolo[1,5-a]pyrimidine-3-carboxamide] the figure was at most 1 µM; with `CCc1ccc([C@H]2C[C@@H](C(F)(F)F)n3ncc(C(=O)NCc4ccc(Cl)cc4)c3N2)cc1` (relative stereo) [Example 67, Cis-N-(4-chlorobenzyl)-5-(4-ethylphenyl)-7-(trifluoromethyl)-4,5,6,7-tetrahydropyrazolo[1,5-a]pyrimidine-3-carboxamide], at most 1 µM. `CCc1ccc([C@H]2C[C@@H](C(F)F)n3ncc(C(=O)NCc4ccc5c(c4)OCO5)c3N2)cc1` (relative stereo) [Example 34, Cis-N-(benzo[d][1,3]dioxol-5-ylmethyl)-7-(difluoromethyl)-5-(4-ethylphenyl)-4,5,6,7-tetrahydropyrazolo[1,5-a]pyrimidine-3-carboxamide] gave an MIC of at most 1 µM. As to `CCc1ccc([C@H]2C[C@@H](C(F)(F)F)n3ncc(C(=O)NCC4CCCCC4)c3N2)cc1` (relative stereo) [Example 5, Cis-N-(cyclohexylmethyl)-5-(4-ethylphenyl)-7-(trifluoromethyl)-4,5,6,7-tetrahydropyrazolo[1,5-a]pyrimidine-3-carboxamide], the minimal inhibitory concentration (MIC) is at most 1 µM. Under `Cc1ccc([C@H]2C[C@@H](C(F)(F)F)n3ncc(C(=O)NCc4cccc(C)c4)c3N2)cc1` (relative stereo) [Example 24, Cis-N-(3-methylbenzyl)-5-(p-tolyl)-7-(trifluoromethyl)-4,5,6,7-tetrahydropyrazolo[1,5-a]pyrimidine-3-carboxamide] stands at most 1 µM. With `CCc1ccc([C@H]2C[C@@H](C(F)(F)F)n3ncc(C(=O)NCc4ccc(C)nc4)c3N2)cc1` (relative stereo) [Example 19, Cis-5-(4-ethylphenyl)-N-((6-methylpyridin-3-yl)methyl)-7-(trifluoromethyl)-4,5,6,7-tetrahydropyrazolo[1,5-a]pyrimidine-3-carboxamide] the figure was 1 to 2 µM (≈ 0.443 to 0.887 µg/mL). With `O=C(NCc1ccco1)c1cnn2c1NC(c1ccc(Br)cc1)CC2C(F)(F)F` (centres unmarked) [57′, 5-(4-bromophenyl)-N-(furan-2-ylmethyl)-7-(trifluoromethyl)-4,5,6,7-tetrahydropyrazolo[1,5-a]pyrimidine-3-carboxamide, reference compound], the minimal inhibitory concentration (MIC) was above 2 µM. With `Cc1ccc(C2CC(C(F)F)n3ncc(C(=O)NCc4ccccc4C(F)(F)F)c3N2)cc1` (centres unmarked) [Example 55, 7-(difluoromethyl)-5-(p-tolyl)-N-(2-(trifluoromethyl)benzyl)-4,5,6,7-tetrahydropyrazolo[1,5-a]pyrimidine-3-carboxamide] the figure was above 2 µM; with `Cc1ccc([C@H]2C[C@@H](C(F)(F)F)n3ncc(C(=O)NCc4ccc(C)c(Cl)c4)c3N2)cc1` (relative stereo) [Example 29, Cis-N-(3-chloro-4-methylbenzyl)-5-(p-tolyl)-7-(trifluoromethyl)-4,5,6,7-tetrahydropyrazolo[1,5-a]pyrimidine-3-carboxamide], 1 to 2 µM (≈ 0.463 to 0.926 µg/mL). With `CCc1ccc([C@H]2C[C@@H](C(F)(F)F)n3ncc(C(=O)NCc4ccc(OC)cc4OC)c3N2)cc1` (relative stereo) [Example 46, Cis-N-(2,4-dimethoxybenzyl)-5-(4-ethylphenyl)-7-(trifluoromethyl)-4,5,6,7-tetrahydropyrazolo[1,5-a]pyrimidine-3-carboxamide] the figure was above 2 µM. Under `CCc1ccc([C@H]2C[C@@H](C(F)(F)F)n3ncc(C(=O)NCc4ccncc4)c3N2)cc1` (relative stereo) [Example 48, Cis-5-(4-ethylphenyl)-N-(pyridin-4-ylmethyl)-7-(trifluoromethyl)-4,5,6,7-tetrahydropyrazolo[1,5-a]pyrimidine-3-carboxamide] stands above 2 µM; under `CCc1ccc([C@H]2C[C@@H](C(F)(F)F)n3ncc(C(=O)NCc4ccc(F)c(C)c4)c3N2)cc1` (relative stereo) [Example 63, Cis-5-(4-ethylphenyl)-N-(4-fluoro-3-methylbenzyl)-7-(trifluoromethyl)-4,5,6,7-tetrahydropyrazolo[1,5-a]pyrimidine-3-carboxamide], at most 1 µM. In the case of `CCc1ccc([C@H]2C[C@@H](C(F)(F)F)n3ncc(C(=O)NCc4cccc(C)c4)c3N2)cc1` (relative stereo) [Example 3, Cis-5-(4-ethylphenyl)-N-(3-methylbenzyl)-7-(trifluoromethyl)-4,5,6,7-tetrahydropyrazolo[1,5-a]pyrimidine-3-carboxamide], the MIC is at most 1 µM. On to `CCc1ccc([C@H]2C[C@@H](C(F)(F)F)n3ncc(C(=O)NCc4ccccc4OC)c3N2)cc1` (relative stereo) [Example 45, Cis-5-(4-ethylphenyl)-N-(2-methoxybenzyl)-7-(trifluoromethyl)-4,5,6,7-tetrahydropyrazolo[1,5-a]pyrimidine-3-carboxamide], for which the MIC is above 2 µM. With `Cc1ccc(CNC(=O)c2cnn3c2NC(c2ccc(C)cc2)CC3C(F)F)cc1` (centres unmarked) [Example 51, 7-(difluoromethyl)-N-(4-methylbenzyl)-5-(p-tolyl)-4,5,6,7-tetrahydropyrazolo[1,5-a]pyrimidine-3-carboxamide] the figure was above 2 µM; with `CCc1ccc([C@H]2C[C@@H](C(F)(F)F)n3ncc(C(=O)NCc4ccc(OC)nc4)c3N2)cc1` (relative stereo) [Example 74, Cis5-(4-ethylphenyl)-N-((6-methoxypyridin-3-yl)methyl)-7-(trifluoromethyl)-4,5,6,7-tetrahydropyrazolo[1,5-a]pyrimidine-3-carboxamide], 1 to 2 µM (≈ 0.459 to 0.919 µg/mL).

Take `COc1ccc(CNC(=O)c2cnn3c2N[C@@H](c2ccc(Br)cc2)C[C@H]3C(F)(F)F)cc1` (relative stereo) [Example 42, Cis-5-(4-bromophenyl)-N-(4-methoxybenzyl)-7-(trifluoromethyl)-4,5,6,7-tetrahydropyrazolo[1,5-a]pyrimidine-3-carboxamide]: the MIC was above 2 µM.

One may read the MIC as the lowest concentration found to suppress growth.
